Laboratory results reported in patent US4166911A, “Pyridazinyl-ergoline compounds having neuroleptic activity” (Farmitalia Carlo Erba S.p.A., priority 1977, dated 1979).

Key:
aggregated mice [1] = assay: protection of aggregated mice from amphetamine toxicity (death rate after 24 hours); details: Mus musculus, ip
aggregated mice [2] = details: result in words, literature; cited from earlier work

| SMILES | ED50 (aggregated mice [1]) | reduction of amphetamine toxicity in aggregated mice (aggregated mice [2]) |
| --- | --- | --- |
| COC12C[C@@H](CNc3ccc(Cl)nn3)CN(C)[C@@H]1Cc1cn(C)c3cccc2c13 (stereo partly drawn) [355/902, 10-Methoxy-8β-(6'-chloro-3'-pyridazinylaminomethyl)-1,6-dimethyl-ergoline] | 16.4 mg/kg | – |
| COc1ccc(NC[C@H]2CN(C)[C@@H]3Cc4cn(C)c5cccc(c45)C3(OC)C2)nn1 (stereo partly drawn) [/903, 10-Methoxy-8β-(6'-methoxy-3'-pyridazinylaminomethyl)-1,6-dimethylergoline] | 30 mg/kg | – |
| CN(C)CCCN1c2ccccc2Sc2ccc(Cl)cc21 [chlorpromazine] | – | clearly reduce the amphetamine toxicity in aggregated mice |
| COC12C[C@@H](CNc3cccnn3)CN(C)[C@@H]1Cc1cn(C)c3cccc2c13 (stereo partly drawn) [/904, 10-Methoxy-8β-(3'-pyridazinylaminomethyl)-1,6-dimethylergoline] | 30 mg/kg | – |
| COC12C[C@@H](CSc3ccc(O)nn3)CN(C)[C@@H]1Cc1cn(C)c3cccc2c13 (stereo partly drawn) [/914, 10-Methoxy-1,6-dimethyl-8β-(6'-hydroxy-3'-pyridazinylmercaptomethyl)ergoline] | 16.7 mg/kg | – |
| COC12C[C@@H](CSc3cccnn3)CN(C)[C@@H]1Cc1cn(C)c3cccc2c13 (stereo partly drawn) [/927, 10-Methoxy-1,6-dimethyl-8β-(3'-pyridazinylmercaptomethyl)ergoline] | 30 mg/kg | – |
